# Assays:
# [1] = test system: mice; experiment: Intracerebral toxicity in mice (LD50); assay type: in vivo
# Description: (§1) As indicated above, the new non-ionic compounds according to the invention have shown markedly low levels of toxicity, especially in intracerebral tests. […] It will be seen that all the new compounds listed are very much better than the known compounds in the intracerebral test.
# (§2) Intravenous and Intracerebral Toxicity
# (§3) Most of the compounds were so inert that it was not physically possible to inject sufficient substance to kill 50% of the mice and in such cases only a minimum value can be given for the LD50.
# [2] = Solubility in water; assay type: physicochemical; conditions: water, room temperature; read-out: Solubility in water at room temperature (class)
# [3] = test system: mice; experiment: Intravenous toxicity in mice (LD50); assay type: in vivo; conditions: concentration administered 300 mgI/ml
# Description: as §1, §2, §3
# [4] = Osmolality of aqueous solution; assay type: physicochemical; conditions: 37° C.; 300 mg I/ml
# Protocol: As indicated above, the compounds according to the invention are of low osmolality as compared to conventional ionic contrast agents and many of the compounds show even lower osmolality values than would have been expected. The observed osmolality in each case would be expected to be about 0.8 mol/kg but compounds 3, 33, 35, 44 and 11 identified in Table I have shown osmolality values of 0.47, 0.48, 0.61, 0.53 and 0.48 mol/kg respectively at 37° C. (300 mg I ml). The last two compounds in Table 2, which are ionic compounds shown for comparison, have osmolality values of about 1.6 mol/kg.
# [5] = subarachnoideal space; in words; cited from earlier work
# [6] = Viscosity; assay type: physicochemical; conditions: 20° C.; 300 mgI/ml
# Description: However, the preferred compounds listed above in relation to the myelographic field are also very useful in cardiovascular visualisation due to their extremely good tolerance.
# [7] = 300 mgI/ml, dose 0.05 ml/20 g mouse
# [8] = 300 mgI/ml, dose 0.10 ml/20 g mouse
SMILES,"Intracerebral LD50 [1, 7]","Intracerebral LD50 [1, 8]",solubility [2],Intravenous LD50 [3],Osmolality [4],Absorption [5],Toxicity in use [5],Viscosity [6],"Intracerebral LD50 ([1]; 400 mgI/ml, dose 0.10 ml/20 g mouse)"
"CC(=O)Nc1c(I)c(C(=O)NC[C@H](O)[C@@H](O)[C@H](O)[C@H](O)CO)c(I)c(N(C)C(C)=O)c1I [Compound 33, N-(N-methyl-3,5-diacetamido-2,4,6-triiodobenzoyl)-D-glucamine]",> 750 mgI/kg,> 1500 mgI/kg,> 500 mg/mL,14250 mgI/kg,0.48 mol/kg,,,,
O=S(=O)(O)CI [iodomethane sulphonate],,,,,,quite rapidly absorbed,"too toxic for cisternography, ventriculography and cervical or thoracic myelography",,
"CC(=O)Nc1c(I)c(C(=O)N(C)CC(O)CO)c(I)c(C(=O)N(C)CC(O)CO)c1I (centres unmarked) [Compound 9, 3,5-Bis-[N-(2,3-dihydroxypropyl)-N-methylcarbomoyl]-2,4,6-triiodoacetanilide]",,about 1500 mgI/kg,> 500 mg/mL,13500 mgI/kg,,,,7.1 cp,
"CC(=O)Nc1c(I)c(C(=O)N(C)C[C@H](O)[C@@H](O)[C@H](O)[C@H](O)CO)c(I)c(N(C)C(C)=O)c1I [Compound 3, N-(N-methyl-3,5-diacetamido-2,4,6-triiodobenzoyl)-N-methyl glucamine]",> 750 mgI/kg,,> 500 mg/mL,6000 mgI/kg,0.47 mol/kg,,,,
"CC(=O)Nc1c(I)c(C(=O)N[C@H]2C(O)O[C@H](CO)[C@@H](O)[C@@H]2O)c(I)c(N(C)C(C)=O)c1I (some centres unmarked) [Compound 11, N-(N-methyl-3,5-diacetamido-2,4,6-triiodobenzoyl)-glucosamine]",,> 1500 mgI/kg,> 500 mg/mL,15000 mgI/kg,0.48 mol/kg,,,,
"CC(=O)N(C)c1c(I)c(C(=O)N(C)C[C@H](O)[C@@H](O)[C@H](O)[C@H](O)CO)c(I)c(N(CCO)C(C)=O)c1I [Compound 35, N-[3-N-methylacetamido-5-N-(β-hydroxyethyl)-acetamido-2,4,6-triiodobenzoyl]-N-methylglucamine]",> 750 mgI/kg,,> 500 mg/mL,,0.61 mol/kg,,,,> 2000 mgI/kg
